# Tests used:
# [1] = Inhibition of NS5A in HuH7 cell infected HCV genotype 1a H77 assessed as decrease in viral replication after 3 days by luciferase reporter gene assay
# [2] = Inhibition of NS5A in HuH7 cell infected HCV genotype 1b Con1 assessed as decrease in viral replication after 3 days by luciferase reporter gene assay
# [3] = Inhibition of HCV genotype 1b Con1 NS5A expressed in HuH7 cell infected HCV genotype 2b assessed as decrease in viral replication after 3 days by luciferase reporter gene assay
# [4] = Inhibition of HCV genotype 1b Con1 NS5A expressed in HuH7 cell infected HCV genotype 3a assessed as decrease in viral replication after 3 days by luciferase reporter gene assay
# [5] = Inhibition of HCV genotype 1b Con1 NS5A expressed in HuH7 cell infected HCV genotype 4a assessed as decrease in viral replication after 3 days by luciferase reporter gene assay
# [6] = Inhibition of HCV genotype 1b Con1 NS5A expressed in HuH7 cell infected HCV genotype 2a assessed as decrease in viral replication after 3 days by luciferase reporter gene assay
# [7] = Inhibition of NS5A in HuH7 cell infected HCV genotype 1a H77 assessed as decrease in viral replication after 3 days in presence of 40% human plasma by luciferase reporter gene assay
# [8] = Inhibition of NS5A in HuH7 cell infected HCV genotype 1b Con1 assessed as decrease in viral replication after 3 days in presence of 40% human plasma by luciferase reporter gene assay
# [9] = Inhibition of HCV genotype 1b Con1 NS5A expressed in HuH7 cell infected HCV genotype 5a assessed as decrease in viral replication after 3 days by luciferase reporter gene assay
# [10] = Inhibition of HCV genotype 1b Con1 NS5A expressed in HuH7 cell infected HCV genotype 6a assessed as decrease in viral replication after 3 days by luciferase reporter gene assay
SMILES,EC50 [1] [nM],EC50 [2] [nM],EC50 [3] [nM],EC50 [4] [nM],EC50 [5] [nM],EC50 [6] [nM],EC50 [7] [nM],EC50 [8] [nM],EC50 [9] [nM],EC50 [10] [nM]
COC(=O)N[C@H](C(=O)N1CCC[C@H]1c1nc2ccc([C@H]3CC[C@H](c4ccc5nc([C@@H]6CCCN6C(=O)[C@@H](NC(=O)OC)C(C)C)[nH]c5c4)N3c3ccc(C4CC4)cc3)cc2[nH]1)C(C)C,0.012,0.023,0.02,0.026,0.02,0.041,0.161,0.354,,
COC(=O)N[C@H](C(=O)N1CCC[C@H]1c1nc2cc(F)c([C@H]3CC[C@H](c4cc5[nH]c([C@@H]6CCCN6C(=O)[C@@H](NC(=O)OC)C6CCOCC6)nc5cc4F)N3c3cc(F)c(N4CCC(c5ccc(F)cc5)CC4)c(F)c3)cc2[nH]1)C1CCOCC1,0.003,0.007,0.008,0.007,0.006,0.008,0.22,0.522,0.005,0.008
COC(=O)N[C@H](C(=O)N1CCC[C@H]1c1nc2ccc([C@H]3CC[C@H](c4ccc5nc([C@@H]6CCCN6C(=O)[C@@H](NC(=O)OC)C(C)C)[nH]c5c4)N3c3ccc(Cl)cc3)cc2[nH]1)C(C)C,0.006,0.007,0.007,0.012,0.005,0.012,0.24,0.33,,0.008
COC(=O)N[C@H](C(=O)N1CCC[C@H]1c1nc2ccc([C@H]3CC[C@H](c4ccc5nc([C@@H]6CCCN6C(=O)[C@@H](NC(=O)OC)C(C)C)[nH]c5c4)N3c3ccc(Oc4ccccc4)cc3)cc2[nH]1)C(C)C,0.012,0.02,0.008,0.011,0.005,0.012,0.155,0.279,,
COC(=O)N[C@H](C(=O)N1CCC[C@H]1c1nc2cc(F)c([C@H]3CC[C@H](c4cc5[nH]c([C@@H]6CCCN6C(=O)[C@@H](NC(=O)OC)C(C)C)nc5cc4F)N3c3cc(F)c(N4CCC(c5ccc(F)cc5)CC4)c(F)c3)cc2[nH]1)C(C)C,0.001,0.003,0.002,0.001,0.001,0.003,0.07,0.172,0.001,0.003
COC(=O)N[C@H](C(=O)N1CCC[C@H]1c1nc2cc(F)c([C@H]3CC[C@H](c4cc5[nH]c([C@@H]6CCCN6C(=O)[C@@H](NC(=O)OC)[C@@H](C)OC)nc5cc4F)N3c3cc(F)c(N4CCC(c5ccccc5)CC4)c(F)c3)cc2[nH]1)[C@@H](C)OC,0.001,0.003,0.003,0.003,0.003,0.003,0.043,0.138,0.002,0.004
COC(=O)N[C@H](C(=O)N1CCC[C@H]1c1nc2ccc([C@@H]3CC[C@@H](c4ccc5nc([C@@H]6CCCN6C(=O)[C@@H](NC(=O)OC)C(C)C)[nH]c5c4)N3c3ccc(C(C)(C)C)cc3)cc2[nH]1)C(C)C,0.071,0.013,,,,,1.98,0.354,,
COC(=O)N[C@H](C(=O)N1CCC[C@H]1C(=O)Nc1ccc([C@H]2CC[C@H](c3ccc(NC(=O)[C@@H]4CCCN4C(=O)[C@@H](NC(=O)OC)C(C)C)cc3)N2c2ccc(C(C)(C)C)cc2)cc1)C(C)C,0.136,0.009,,,,,0.986,0.09,,
COC(=O)N[C@H](C(=O)N1CCC[C@H]1c1nc2ccc([C@H]3CC[C@H](c4ccc5nc([C@@H]6CCCN6C(=O)[C@@H](NC(=O)OC)C(C)C)[nH]c5c4)N3c3cc(F)c(N4CCC(c5ccc(F)cc5)CC4)c(F)c3)cc2[nH]1)C(C)C,0.003,0.008,0.013,0.013,0.009,0.02,0.078,0.126,,0.021
COC(=O)N[C@H](C(=O)N1CCC[C@H]1c1nc2ccc([C@H]3CC[C@H](c4ccc5nc([C@@H]6CCCN6C(=O)[C@@H](NC(=O)OC)C(C)C)[nH]c5c4)N3c3ccc(OC(F)(F)F)cc3)cc2[nH]1)C(C)C,0.019,0.012,0.012,0.018,0.013,0.043,0.276,0.23,,
COC(=O)N[C@H](C(=O)N1CCC[C@H]1c1nc2ccc([C@H]3CC[C@H](c4ccc5nc([C@@H]6CCCN6C(=O)[C@@H](NC(=O)OC)C(C)C)[nH]c5c4)N3c3ccc(C4CCCCC4)cc3)cc2[nH]1)C(C)C,0.004,0.009,0.007,0.008,0.009,0.01,0.107,0.178,,
COC(=O)N[C@H](C(=O)N1CCC[C@H]1c1nc2ccc([C@H]3CC[C@H](c4ccc5nc([C@@H]6CCCN6C(=O)[C@@H](NC(=O)OC)C(C)C)[nH]c5c4)N3c3ccc(F)cc3)cc2[nH]1)C(C)C,0.038,0.025,0.021,0.031,0.014,0.028,0.49,0.427,,0.014
COC(=O)N[C@H](C(=O)N1CCC[C@H]1c1nc2cc([C@H]3CC[C@H](c4ccc5[nH]c([C@@H]6CCCN6C(=O)[C@@H](NC(=O)OC)C(C)C)nc5c4)N3c3cc(F)c(N4CCCCC4)c(F)c3)ccc2[nH]1)C(C)C,0.005,0.006,0.007,0.008,0.005,0.013,0.151,0.241,,0.007
COC(=O)N[C@H](C(=O)N1CCC[C@H]1c1nc2ccc([C@H]3CC[C@H](c4ccc5nc([C@@H]6CCCN6C(=O)[C@@H](NC(=O)OC)C(C)C)[nH]c5c4)N3c3ccc(N4CCOCC4)c(F)c3)cc2[nH]1)C(C)C,0.189,0.196,0.229,0.355,0.17,0.307,0.474,0.915,,
COC(=O)N[C@H](C(=O)N1CCC[C@H]1c1nc2ccc([C@H]3CC[C@H](c4ccc5nc([C@@H]6CCCN6C(=O)[C@@H](NC(=O)OC)C(C)C)[nH]c5c4)N3c3ccc(C(C)(C)C)cc3)cc2[nH]1)C(C)C,0.009,0.013,0.01,0.006,0.006,0.152,0.148,0.268,,
COC(=O)N[C@H](C(=O)N1CCC[C@H]1c1nc2ccc([C@H]3CC[C@H](c4ccc5nc([C@@H]6CCCN6C(=O)[C@@H](NC(=O)OC)C(C)C)[nH]c5c4)N3c3ccc(N4CCOCC4)cc3)cc2[nH]1)C(C)C,0.379,0.382,0.96,1.2,0.316,0.598,0.902,2.07,,
COC(=O)N[C@H](C(=O)N1CCC[C@H]1c1nc2ccc([C@H]3CC[C@H](c4ccc5nc([C@@H]6CCCN6C(=O)[C@@H](NC(=O)OC)C(C)C)[nH]c5c4)N3c3ccc(-c4ccccc4)cc3)cc2[nH]1)C(C)C,0.004,0.003,0.009,0.016,0.006,0.011,0.075,0.108,,0.011
COC(=O)N[C@H](C(=O)N1CCC[C@H]1c1nc2ccc([C@H]3CC[C@H](c4ccc5nc([C@@H]6CCCN6C(=O)[C@@H](NC(=O)OC)C(C)C)[nH]c5c4)N3c3ccc(N4CCCCC4)c(F)c3)cc2[nH]1)C(C)C,0.018,0.029,0.03,0.044,0.017,0.048,0.199,0.383,,
COC(=O)N[C@H](C(=O)N1CCC[C@H]1c1nc2ccc([C@H]3CC[C@H](c4ccc5nc([C@@H]6CCCN6C(=O)[C@@H](NC(=O)OC)C(C)C)[nH]c5c4)N3c3cc(Cl)c(N4CCCCC4)c(Cl)c3)cc2[nH]1)C(C)C,0.005,0.003,0.005,0.011,0.006,0.044,0.213,0.132,,0.01
COC(=O)N[C@H](C(=O)N1CCC[C@H]1c1nc2ccc([C@H]3CC[C@H](c4ccc5nc([C@@H]6CCCN6C(=O)[C@@H](NC(=O)OC)C(C)C)[nH]c5c4)N3c3ccc(N4CCC(c5ccccc5)CC4)cc3)cc2[nH]1)C(C)C,0.324,0.325,0.452,0.481,0.243,0.468,1.51,1.51,,0.402

# — BindingDB's records for doi:10.1021/acs.jmedchem.8b00082 (Abbvie, 2018)
